Data published in US20210130339A1, “COMPOUNDS” (GLAXOSMITHKLINE INTELLECTUAL PROPERTY DEVELOPMENT LIMITED, priority 2017, published 2021).
Where “and” joins values, the source holds several entries; their conditions need not be identical. Identical values can stand only once.

Molecular target: T1, recombinant full length LRRK2 (Homo sapiens, UniProt Q5S007)
T1 construct: A BacMam virus expressing full length recombinant LRRK2 was purchased from Invitrogen; host or cells: SH-SY5Y human neuroblastoma cells transduced with BacMam LRRK2 virus (MOI 50)
Assay: Recombinant cellular LRRK2 AlphaScreen assay
Type: cell-based
Settings: LRRK2 Ser935 phosphorylation, SH-SY5Y cells over-expressing recombinant full length LRRK2; read-out: pIC50 in the recombinant cellular LRRK2 AlphaScreen assay (converted)
Excerpt: b. Recombinant Cellular LRRK2 AlphaScreen Assay
To determine the activity of compounds against LRRK2 kinase activity in cells, the observed LRRK2 kinase-dependent modulation of LRRK2 Ser 935 phosphorylation (Dzamko et al., 2010, Biochem. J. 430: 405-413) was utilized to develop a quantitative 384 well plate-based immunoassay of LRRK2 Ser935 phosphorylation in the human neuroblastoma cell line SH-SY5Y, engineered to over-express recombinant full length LRRK2 protein. A BacMam virus expressing full length recombinant LRRK2 was purchased from Invitrogen and amplified by inoculation of SF-9 cells at MOI 0.3 for 4-5 days in Sf-900 III SFM medium supplemented with 3% fetal bovine serum. Infected cell cultures were then centrifuged at 2000 g for 20 minutes, viral supernatant titer determined by anti-gp64 plaque assay and stored at 4° C. Affinity-purified anti-phospho LRRK2 Ser935 sheep polyclonal antibody (Dzamko et al., 2010, Biochem. J. 430: 405-413) was biotinylated by standard methods (PerkinElmer). Anti-LRRK2 rabbit polyclonal antibody was purchased from Novus Biologicals. AlphaScreen Protein A IgG Kit (including acceptor and donor beads) was purchased from Perkin Elmer. SH-SY5Y cells were grown in DMEM/F12 medium with 10% dialysed fetal bovine serum and harvested by treatment with 0.5% trypsin-EDTA for 5 minutes at 37° C. followed by centrifugation at 1000 rpm for 4 minutes. The cell pellet was resuspended in Opti-MEM reduced serum media (Invitrogen) at 200,000 cells/ml and mixed with the BacMam LRRK2 virus at MOI=50. 50 μl cell solutions were then dispensed to each well of a 384-well plate and incubated at 37° C., 5% CO2 for 24 hours. Serial dilutions of test compounds were prepared in Opti-MEM reduced serum media (Invitrogen) and 5.6 ul transferred from compound plate to cell assay plate to achieve a top final assay concentration of 10 uM. DMSO was used in certain wells as controls. Cells were incubated at 37° C., 5% CO2 for 60 minutes. The medium was then removed and cells lysed by addition of 20 ul cell lysis buffer (Cell Signaling Technology) and incubation at 4° C. for 20 minutes. 10 ul of antibody/acceptor bead mix [(1/1000 biotinylated-pS935 LRRK2 antibody, 1/1000 total-LRRK2 antibody, 1/100 Acceptor beads in AlphaScreen detection buffer (25 mM Hepes (pH 7.4), 0.5% Triton X-100, 1 mg/ml Dextran 500 and 0.1% BSA)] was then added to each well and plates incubated for 2 hours at ambient temperature in the dark. 10 μl of donor beads solution (1/33.3 donor beads in AlphaScreen detection buffer) was then added to each well. Following incubation for a further 2 hours at ambient temperature in the dark, plates were read on an EnVision™ plate reader at emission 520-620 nm with excitation 680 nm. Dose response curve data was based on sigmoidal dose-response model.

T1 sequence (Q5S007 whole entry): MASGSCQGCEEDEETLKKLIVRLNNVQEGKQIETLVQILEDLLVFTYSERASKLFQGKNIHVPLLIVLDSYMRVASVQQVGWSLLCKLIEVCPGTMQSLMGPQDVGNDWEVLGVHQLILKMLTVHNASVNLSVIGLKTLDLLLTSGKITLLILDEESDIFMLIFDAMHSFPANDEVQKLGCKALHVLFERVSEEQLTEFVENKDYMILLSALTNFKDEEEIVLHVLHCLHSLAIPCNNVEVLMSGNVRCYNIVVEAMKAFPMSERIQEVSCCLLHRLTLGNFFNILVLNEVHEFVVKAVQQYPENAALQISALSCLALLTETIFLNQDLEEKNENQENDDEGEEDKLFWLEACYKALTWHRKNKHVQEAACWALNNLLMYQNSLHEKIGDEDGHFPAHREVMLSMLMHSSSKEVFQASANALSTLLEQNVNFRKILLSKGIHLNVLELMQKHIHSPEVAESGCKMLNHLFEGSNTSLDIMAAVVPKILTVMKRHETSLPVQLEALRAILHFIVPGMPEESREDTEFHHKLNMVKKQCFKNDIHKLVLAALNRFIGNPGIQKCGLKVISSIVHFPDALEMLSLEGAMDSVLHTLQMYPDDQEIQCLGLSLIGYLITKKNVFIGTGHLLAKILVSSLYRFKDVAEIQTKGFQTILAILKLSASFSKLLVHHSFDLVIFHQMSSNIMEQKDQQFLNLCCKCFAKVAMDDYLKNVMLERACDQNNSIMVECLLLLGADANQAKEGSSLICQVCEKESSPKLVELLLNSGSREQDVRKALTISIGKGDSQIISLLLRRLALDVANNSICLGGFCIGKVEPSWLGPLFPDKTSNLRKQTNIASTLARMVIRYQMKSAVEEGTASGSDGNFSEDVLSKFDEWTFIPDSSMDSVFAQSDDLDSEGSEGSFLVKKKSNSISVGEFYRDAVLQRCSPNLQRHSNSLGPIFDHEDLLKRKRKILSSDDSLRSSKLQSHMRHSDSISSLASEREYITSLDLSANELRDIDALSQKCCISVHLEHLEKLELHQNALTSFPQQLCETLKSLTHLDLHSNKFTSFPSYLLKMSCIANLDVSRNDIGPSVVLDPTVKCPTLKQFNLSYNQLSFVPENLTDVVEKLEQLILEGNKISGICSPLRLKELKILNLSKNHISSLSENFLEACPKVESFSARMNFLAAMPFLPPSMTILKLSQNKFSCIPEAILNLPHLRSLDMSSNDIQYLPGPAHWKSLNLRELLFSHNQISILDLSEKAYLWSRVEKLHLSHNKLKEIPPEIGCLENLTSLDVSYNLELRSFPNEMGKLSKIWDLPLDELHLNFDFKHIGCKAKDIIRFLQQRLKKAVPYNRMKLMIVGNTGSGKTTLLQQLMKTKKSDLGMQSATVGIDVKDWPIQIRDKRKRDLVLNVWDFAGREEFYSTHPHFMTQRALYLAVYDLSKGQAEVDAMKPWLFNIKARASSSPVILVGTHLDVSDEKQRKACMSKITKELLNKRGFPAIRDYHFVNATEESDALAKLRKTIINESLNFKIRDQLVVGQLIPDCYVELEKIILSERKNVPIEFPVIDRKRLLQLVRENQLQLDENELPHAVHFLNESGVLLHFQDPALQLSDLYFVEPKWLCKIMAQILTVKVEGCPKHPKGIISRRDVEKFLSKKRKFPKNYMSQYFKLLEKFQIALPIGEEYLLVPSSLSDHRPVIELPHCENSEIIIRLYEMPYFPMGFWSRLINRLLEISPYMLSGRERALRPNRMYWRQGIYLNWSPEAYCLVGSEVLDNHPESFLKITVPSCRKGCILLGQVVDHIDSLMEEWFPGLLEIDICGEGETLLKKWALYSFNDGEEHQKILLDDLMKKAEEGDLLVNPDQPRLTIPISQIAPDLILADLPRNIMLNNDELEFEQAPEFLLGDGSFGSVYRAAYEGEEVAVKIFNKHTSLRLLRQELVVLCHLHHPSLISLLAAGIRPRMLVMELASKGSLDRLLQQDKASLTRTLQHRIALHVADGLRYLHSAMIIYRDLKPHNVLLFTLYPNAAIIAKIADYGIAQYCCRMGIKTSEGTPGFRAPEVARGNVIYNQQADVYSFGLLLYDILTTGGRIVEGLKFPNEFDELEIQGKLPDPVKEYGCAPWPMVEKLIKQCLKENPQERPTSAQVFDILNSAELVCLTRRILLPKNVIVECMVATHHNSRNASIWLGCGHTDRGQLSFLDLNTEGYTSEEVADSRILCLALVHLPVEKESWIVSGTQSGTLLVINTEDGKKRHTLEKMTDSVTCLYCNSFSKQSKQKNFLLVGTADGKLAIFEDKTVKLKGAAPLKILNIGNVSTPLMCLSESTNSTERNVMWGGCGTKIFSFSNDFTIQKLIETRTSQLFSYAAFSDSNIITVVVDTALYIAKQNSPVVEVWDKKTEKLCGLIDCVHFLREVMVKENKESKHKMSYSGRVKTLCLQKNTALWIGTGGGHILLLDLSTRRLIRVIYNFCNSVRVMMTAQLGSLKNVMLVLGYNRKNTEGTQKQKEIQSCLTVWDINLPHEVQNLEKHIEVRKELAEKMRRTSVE

Structure (SMILES) | IC50
Cc1nc(N2CCO[C@H](CO)C2)cc(-n2ncc3cc(C)c(C4CCN(C5CCOC5)CC4F)cc32)n1 (single isomer, unassigned) [Example E103] | ≤ 100 nM
Cc1nc(N2CCO[C@H](CO)C2)cc(-n2ncc3cc(C)c(C4CCN(C5CCOC5)CC4F)cc32)n1 (single isomer, unassigned) [Example E104] | ≤ 100 nM
Cc1nc(N2CC(C)OC(CO)C2)cc(-n2ncc3cc(C)c(C4CCN(C5CCOC5)CC4)cc32)n1 (single isomer, unassigned) [Example E60, (6-Methyl-4-(2-methyl-6-(5-methyl-6-(1-(tetrahydrofuran-3-yl)piperidin-4-yl)-1H-indazol-1-yl)pyrimidin-4-yl)morpholin-2-yl)methanol] | ≤ 100 nM
[2H]C1(N2CCC(c3cc4c(cnn4-c4cc(N5CCO[C@@H](CO)C5)nc(C)n4)cc3C)CC2)CCOC1 (single isomer, unassigned) [Example E35] | 200 nM
Cc1nc(N[C@@H]2CCOC2)cc(-n2ncc3cc(C)c(C4CCN(C5CCOC5)CC4)cc32)n1 (stereo partly drawn) [Example E143, 2-methyl-6-(5-methyl-6-(1-(tetrahydrofuran-3-yl)piperidin-4-yl)-1H-indazol-1-yl)-N—((R)-tetrahydrofuran-3-yl)pyrimidin-4-amine] | ≤ 1000 nM
Cc1nc(N2CCO[C@@H](CO)C2)cc(-n2ncc3cc(C)c(C4CCN(C5CCOC5)CC4F)cc32)n1 (single isomer, unassigned) [Example E101] | ≤ 100 nM
Cc1nc(N2CCO[C@H](CO)C2)cc(-n2ncc3cc(C)c(C4CCN(C5CCOC5)CC4F)cc32)n1 (single isomer, unassigned) [Example E105] | ≤ 100 nM
COc1nc(N2CC[C@H](O)C2)cc(-n2ncc3cc(C)c(C4CCN(C5CCOC5)CC4)cc32)n1 (single isomer, unassigned) [Example E17] | ≤ 100 nM
COc1nc(N2CC(C)(O)C2)cc(-n2ncc3cc(C)c(C4CCN(C5CCOC5)CC4)cc32)n1 (single isomer, unassigned) [Example E11, 1-(2-Methoxy-6-(5-methyl-6-(1-(tetrahydrofuran-3-yl)piperidin-4-yl)-1H-indazol-1-yl)pyrimidin-4-yl)-3-methylazetidin-3-ol] | ≤ 100 nM
COc1nc(N2CC(C(C)O)C2)cc(-n2ncc3cc(C)c(C4CCN(C5CCOC5)CC4)cc32)n1 (single isomer, unassigned) [Example E100, 1-(1-(2-methoxy-6-(5-methyl-6-(1-(tetrahydrofuran-3-yl)piperidin-4-yl)-1H-indazol-1-yl)pyrimidin-4-yl)azetidin-3-yl)ethanol] | ≤ 1000 nM
COc1nc(N2CC(O)C2)cc(-n2ncc3cc(Cl)c(C4CCN(C5CCOC5)CC4)cc32)n1 (single isomer, unassigned) [Example E29, 1-(6-(5-Chloro-6-(1-(tetrahydrofuran-3-yl)piperidin-4-yl)-1H-indazol-1-yl)-2-methoxy-pyrimidin-4-yl)azetidin-3-ol] | ≤ 10 nM
COc1nc(N2CC(C(C)O)C2)cc(-n2ncc3cc(C)c(C4CCN(C5CCOC5)CC4)cc32)n1 (single isomer, unassigned) [Example E99, 1-(1-(2-methoxy-6-(5-methyl-6-(1-(tetrahydrofuran-3-yl)piperidin-4-yl)-1H-indazol-1-yl)pyrimidin-4-yl)azetidin-3-yl)ethanol] | ≤ 1000 nM
Cc1nc(N[C@H]2CCOC2)cc(-n2ncc3cc(C)c(C4CCN(C5CCOC5)CC4)cc32)n1 (stereo partly drawn) [Example E144, 2-methyl-6-(5-methyl-6-(1-(tetrahydrofuran-3-yl)piperidin-4-yl)-1H-indazol-1-yl)-N—((S)-tetrahydrofuran-3-yl)pyrimidin-4-amine] | ≤ 1000 nM
COc1nc(N2CCO[C@H](CO)C2)cc(-n2ncc3cc(C)c(C4CCN(C5CCOC5)CC4F)cc32)n1 (single isomer, unassigned) [Example E123] | ≤ 10 nM
Cc1nc(N2CCO[C@@H](CO)C2)cc(-n2ncc3cc(Cl)c(C4CCN(C5CCOC5)CC4)cc32)n1 (single isomer, unassigned) [Example E129] | ≤ 1000 nM
COc1nc(N2CCO[C@H](CO)C2)cc(-n2ncc3cc(C)c(C4CCN(C5CCOC5)CC4F)cc32)n1 (single isomer, unassigned) [Example E121] | ≤ 10 nM
COc1nc(N2CC(C(C)O)C2)cc(-n2ncc3cc(C)c(C4CCN(C5CCOC5)CC4)cc32)n1 (single isomer, unassigned) [Example E98, 1-(1-(2-methoxy-6-(5-methyl-6-(1-(tetrahydrofuran-3-yl)piperidin-4-yl)-1H-indazol-1-yl)pyrimidin-4-yl)azetidin-3-yl)ethanol] | ≤ 100 nM
Cc1nc(N[C@H]2C[C@H](O)C2)cc(-n2ncc3cc(C)c(C4CCN(C5CCOC5)CC4)cc32)n1 (single isomer, unassigned) [Example E132, trans-3-((2-methyl-6-(5-methyl-6-(1-(tetrahydrofuran-3-yl)piperidin-4-yl)-1H-indaz-ol-1-yl)pyrimidin-4-yl)amino)cyclobutanol] | ≤ 1000 nM
Cc1nc(N2CCO[C@H](CO)C2)cc(-n2ncc3cc(Cl)c(C4CCN(C5CCOC5)CC4)cc32)n1 (single isomer, unassigned) [Example E25] | ≤ 100 nM
COc1nc(N2CC(C(C)O)C2)cc(-n2ncc3cc(C)c(C4CCN(C5CCOC5)CC4)cc32)n1 (single isomer, unassigned) [Example E97, 1-(1-(2-methoxy-6-(5-methyl-6-(1-(tetrahydrofuran-3-yl)piperidin-4-yl)-1H-indazol-1-yl)pyrimidin-4-yl)azetidin-3-yl)ethanol] | ≤ 100 nM
COc1nc(N2CCO[C@H](CO)C2)cc(-n2ncc3cc(C)c(C4CCN(C5CCOC5)CC4F)cc32)n1 (single isomer, unassigned) [Example E122] | ≤ 10 nM
COc1nc(N2CCOC(C(C)O)C2)cc(-n2ncc3cc(C)c(C4CCN(C5CCOC5)CC4)cc32)n1 (single isomer, unassigned) [Example E21, 1-(4-(2-Methoxy-6-(5-methyl-6-(1-(tetrahydrofuran-3-yl)piperidin-4-yl)-1H-indazol-1-yl)pyrimidin-4-yl)morpholin-2-yl)ethanol] | ≤ 100 nM
COc1nc(N2CCNC(=O)C2)cc(-n2ncc3cc(C)c(C4CCN(C5CCOC5)CC4F)cc32)n1 (single isomer, unassigned) [Example E53, 4-(6-(6-(3-Fluoro-1-(tetrahydrofuran-3-yl)piperidin-4-yl)-5-methyl-1H-indazo-1-yl)-2-methoxypyrimidin-4-yl)piperazin-2-one] | ≤ 10 nM
COc1nc(N2CC[C@@H](O)C2)cc(-n2ncc3cc(C)c(C4CCN(C5CCOC5)CC4)cc32)n1 (single isomer, unassigned) [Example E19] | ≤ 100 nM
[2H]C1([2H])CC(c2cc3c(cnn3-c3cc(N4CCO[C@@H](CO)C4)nc(C)n3)cc2C)CC([2H])([2H])N1[C@H]1CCOC1 [Example E96, ((R)-4-(2-methyl-6-(5-methyl-6-(1-((S)-tetrahydrofuran-3-yl)piperidin-4-yl-2,2,6,6-d4)-1H-indazol-1-yl)pyrimidin-4-yl)morpholin-2-yl)methanol] | ≤ 100 nM and 100 nM
COc1nc(N2CC(O)C2)cc(-n2ncc3cc(C)c(C4CCN(C5CCOC5)CC4F)cc32)n1 (single isomer, unassigned) [Example E5, cis-1-(6-(6-(3-Fluoro-1-(tetrahydrofuran-3-yl)piperidin-4-yl)-5-methyl-1H-indazol-1-yl)-2-methoxypyrimidin-4-yl)azetidin-3-ol] | ≤ 10 nM and 5.01 nM
Cc1nc(OC2CC(O)C2)cc(-n2ncc3cc(C)c(C4CCN(C5CCOC5)CC4)cc32)n1 (single isomer, unassigned) [Example E145, 3-((2-methyl-6-(5-methyl-6-(1-(tetrahydrofuran-3-yl)piperidin-4-yl)-1H-indazol-1-yl)pyrimidin-4-yl)oxy)cyclobutanol] | ≤ 1000 nM
[2H]C1(N2CCC(c3cc4c(cnn4-c4cc(N5CCO[C@@H](CO)C5)nc(C)n4)cc3C)CC2)CCOC1 (single isomer, unassigned) [Example E36] | 158 nM
